From patent US12233419B2, “Devices, systems, and methods for single cell bacteria analysis” (priority 2018, dated 2025)
{TAMRA} = 6-carboxytetramethylrhodamine (NHS ester) fluorophore; {FAM} = 6-carboxyfluorescein (6-FAM) fluorophore; {IBFQ} = Iowa Black FQ dark quencher; {IBRQ} = Iowa Black RQ dark quencher

What was measured:
E. coli EC132 = assay: NAME pathogen identification with microfluidic single cell AST; type: cell-based; conditions: growth in channels with ciprofloxacin
Source text: (§1) We integrated pathogen identification and single cell AST by applying a microfluidic confinement technique (FIG. 23A) (18, from which the description of the microfluidic device and technique is incorporated herein by reference). […] In this integrated identification and AST assay, the bacteria were transformed, loaded into the microchannels via capillary flow, and trapped in the channels for phenotypic AST. […] AST was implemented by monitoring the bacterial growth in the channels with and without the presence of antibiotics.
(§2) The bacteria suspension (1 μl) was loaded onto a microscope slide and covered with a cover glass for imaging and counting using a fluorescence microscope (Leica DMI 4000B, objective 40×). The transformation efficiency was estimated by the number of bacteria with an observable fluorescence intensity over the total number of bacteria (bright-field). To conduct AST, the transformed bacteria were loaded onto the microfluidic device by capillary force.

E. coli EC137 = assay: as above; type: cell-based; conditions: growth in channels with ciprofloxacin
Source text: as §1, §2

[1] = tested on: M. bacteremicum (ATCC 25791); assay: Single cell AST in adaptable microfluidic device; type: cell-based; conditions: ciprofloxacin 2 μg/mL; growth/non-growth defined by 50% reduction in growth rate
Source text: (§3) Taking advantage of microfluidic confinement, single cell AST can be performed phenotypically in the presence of antibiotics in the channel. Resistant strains can grow in the presence of the antibiotic while the antibiotic would inhibit the growth of susceptible strains (FIG. 1C). As the cross-section of the channels is compatible with the size of the pathogen, the bacterial growth is confined along the microchannel. The change in length of the bacteria in the channel over time is used to quantitatively measure the growth of the bacteria.
(§4) In embodiments, bacterial trapping channels of this disclosure are also capable of single cell AST by monitoring the phenotypic growth of the trapped bacteria in the channel. In control groups without antibiotics, the bacteria grew exponentially along the microchannels (FIG. 2B, E, H). […] Growth was measured by an increase in the length of the bacteria occupying the microchannel. The length was normalized according to the initial length for estimating the growth rate, to account for variation of the initial length. Comparison of the growth rate between the control group and the antibiotic group determined the susceptibility of the bacteria. […] Unless otherwise specified, this definition is applied throughout Part I of this disclosure.
(§5) E. coli, S. epidermidis, and M. bacteremicum were cultured in Mueller Hinton broth, Nutrient broth, and ATCC medium 1395, respectively. The bacteria were cultured to an optical density at 600 nm (OD600) around 0.2 (measured with Nanodrop 2000, Thermo Scientific) and diluted to 5×10^5 cfu/mL following the CLSI guideline. […] The concentration of oxacillin for S. epidermidis was 4 μg/mL. A 20 μl sample was loaded into the inlet of the microchannel. Culture medium was applied to immerse the whole device. The device was then loaded on a microscope (Leica DMI4000B) thermal stage for real-time monitoring (SensiCam QE, PCO) of the bacterial growth. The length of the bacteria occupying the microchannel was measured in ImageJ (imagej.nih.gov/ij/). To model the polymicrobial infection with different species, E. coli (EC137) and S. epidermidis were cultured to OD600 around 0.2, mixed at ratio of 1:1, and diluted to a final concentration of 1×10^6 cfu/mL with and without ampicillin (8 μg/mL). To mimic the polymicrobial infection with different strains, E. coli (EC137 and EC136) were mixed at a ratio of 10:1 and diluted to a final concentration of 5×10^6 cfu/mL with and without ampicillin. In this embodiment, the antibiotic resistance was determined as 50% reduction in the growth rate (or two-fold difference in growth rate) in the antibiotic group based on the distribution of the growth rate of single cells. In particular, we define the threshold value based on the standard derivation of single cell growth and t-statistics (two-tailed, unpaired). In our calibration tests, the standard deviations of the growth rate were below 25% of the mean (in the worst case scenario). In the calculation, the degree of freedom was 8, since at least 5 bacteria were used in each group. A 50% reduction in growth rate is equivalent to a p-value of approximately 0.022.

E. coli (EC137) = assay: Single cell AST in adaptable microfluidic device; type: cell-based; conditions: for antibiotic response in polymicrobial sample: ampicillin 8 μg/mL, mixed with S. epidermidis or EC136
Source text: as §3, §4, §5

EC137 = assay: Testing bacteria resistance with agar pads; type: cell-based, E. coli; conditions: with and without ciprofloxacin
Source text: FIG. 28. Testing bacteria resistance with agar pads. (A) Schematics of the procedure for creating agar pads for single cell AST. […] Scale bars, 25 μm.

[2] = tested on: S. epidermidis (ATCC 12228); assay: Single cell AST in adaptable microfluidic device; type: cell-based; conditions: for antibiotic response in polymicrobial sample: ampicillin 8 μg/mL, mixed with E. coli EC137 1:1
Source text: as §3, §4, §5

[3] = tested on: bacterial 16S rRNA of P. aeruginosa; assay: Intracellular 16S rRNA detection with double-stranded probes delivered by NAME; type: cell-based
Source text: (§6) As discussed above, the present disclosure provides a microwave electroporation approach for transforming molecular probes into viable bacteria for intracellular sensing and pathogen identification (FIG. 24). Multiwall carbon nanotubes, which couple and localize the microwave energy, can enhance the electric field in a manner similar to a lightning rod for microwave electroporation with a minimal effect on the cell viability^(14, 15). To evaluate the feasibility of multiplex single cell pathogen identification using NAME, two molecular probes targeting the species-specific regions of bacterial 16S rRNA of E. coli (EC probe) and P. aeruginosa (PA probe) were designed and transformed into the bacteria (Tables 4-5). The performance of the double-stranded nucleic acid probe was first calibrated for use in homogeneous sensing (FIG. 25). For multiplex detection, the PA probe was labeled with 6-carboxyfluorescein (6-FAM) and the EC probe was labeled with 6-carboxytetramethylrhodamine (6-TAMRA). Uropathogenic E. coli and P. aeruginosa were transformed with both probes for pathogen identification (FIG. 20D).
(§7) Four double-stranded probes were used in this disclosure (Table 4). Each probe contained two DNA strands. The donor strands were 22-24 nucleotides long and complementary to the target RNA of interest^(27, 28). The fluorophores, 6-FAM (Fluorescein) or 6-TAMRA (NHS Ester), were labeled at the 3′ end of the donor strands. The quencher strands were 11-12 nucleotides in length. The dark quenchers, Iowa Black FQ for 6-FAM or Iowa Black RQ for 6-TAMRA, were labeled at the 5′ end of the quencher strands immediately adjacent to the fluorophores on the donor strands. The probes were synthesized by Integrated DNA Technologies (Coralville, IA). Other reagents were purchased from Sigma Inc. (St. Louis, MO) unless otherwise specified. To conduct the assay, the probes were made by mixing the fluorophore and quencher strands in the buffer solution, which contains 10 mM Tris-EDTA with 100 mM NaCl at a 1:3 molar ratio, at 95° C. for 5 minutes. The mixtures were then allowed to cool down to room temperature slowly. The final concentration of the probes in the transformation test was 1.5×10^3 nM.
(§8) Bacteria were grown in Mueller Hinton Broth. To transform the double-stranded probe into bacteria, 100 μl of bacterial sample was centrifuged at 4500 rpm for 5 minutes and washed twice with phosphate buffer (PBS 1×). The multiwall carbon nanotubes that are functionalized with a carboxyl group (COOH) have a diameter of 30±15 nm and a length from 1 to 5 μm (NanoLab, Inc.). The nanotube solution (30 mg/ml) was filtered with a 1 μm microfilter. The pellet was resuspended into 100 μl filtered nanotube solution and incubated for 10 minutes at room temperature. Then, 10 μl molecular probe was added and incubated at room temperature for 10 minutes. The sample was incubated in ice for 5 minutes and then put into a microwave oven (700 W, 2.45 GHz) for 10 seconds. The microwave treated bacteria was incubated at room temperature for 30 minutes and washed 3 times with PBS (1×) to remove the extra probes and resuspended in PBS for imaging.

[4] = tested on: bacterial 16S rRNA of E. coli; assay: as above; type: cell-based
Source text: as §6, §7, §8

E. coli (EC136) = assay: Single cell AST in adaptable microfluidic device; type: cell-based; conditions: ampicillin; EC137 and EC136 mixed 10:1
Method: We further evaluated the capability of the microfluidic system for identifying samples with multiple strains of the same species, which is challenging for genotypic diagnosis. Two strains of E. coli (EC137 and EC136 at a 10:1 ratio) with different antibiotic resistance profiles were tested. EC137 is susceptible to ampicillin while EC136 is resistant to ampicillin. Both strains were trapped in the microchannels at 180 kPa pressure with no spatial separation in the microchannel (FIG. 3F). […] In the antibiotic group, EC136 grew exponentially with ampicillin in the medium, whereas EC137 was lysed by ampicillin. FIG. 3J illustrates the growth curves of EC136 and EC137 in the same test.
E. coli, S. epidermidis, and M. bacteremicum were cultured in Mueller Hinton broth, Nutrient broth, and ATCC medium 1395, respectively. The bacteria were cultured to an optical density at 600 nm (OD600) around 0.2 (measured with Nanodrop 2000, Thermo Scientific) and diluted to 5×10^5 cfu/mL following the CLSI guideline. […] The concentration of oxacillin for S. epidermidis was 4 μg/mL. […] The length of the bacteria occupying the microchannel was measured in ImageJ (imagej.nih.gov/ij/). […] In this embodiment, the antibiotic resistance was determined as 50% reduction in the growth rate (or two-fold difference in growth rate) in the antibiotic group based on the distribution of the growth rate of single cells. […]

O=C(O)c1cn(C2CC2)c2cc(N3CCNCC3)c(F)cc2c1=O [ciprofloxacin]
antimicrobial susceptibility after NAME (E. coli EC132): resistant
antimicrobial susceptibility after NAME (E. coli EC137): susceptible
antimicrobial susceptibility (growth in microchannel) [1]: effective
antimicrobial susceptibility (growth in microchannel) (E. coli (EC137); ciprofloxacin 4 μg/mL, growth/non-growth defined by 50% reduction in growth rate): effective
growth in agar pads (EC137): inhibited the growth

Cc1onc(-c2ccccc2)c1C(=O)N[C@@H]1C(=O)N2[C@@H]1SC(C)(C)[C@@H]2C(=O)O [oxacillin]
antimicrobial susceptibility (growth in microchannel) ([2]; oxacillin 4 μg/mL, growth/non-growth defined by 50% reduction in growth rate): completely inhibited the growth

PA probe: double-stranded DNA probe for P. aeruginosa 16S rRNA; donor SEQ ID 6 with 3′ 6-FAM, quencher SEQ ID 7 (sense GCTGAACCACCTACGCGCGCTTT; antisense AAAGCGCGCGTA; sense: 3' {FAM}, sugars by position and backbone not given here; antisense: 5' {IBFQ}, sugars by position and backbone not given here)
fluorescence signal from the probe in the bacteria ([3]; P. aeruginosa samples, both probes transformed): high fluorescence signal
single cell pathogen identification of clinical isolates ([3]; isolates from clinical urine samples): specifically identified
fluorescence signal from the probe in the bacteria (non-target probe) ([4]; samples with E. coli only, PA probe): not observable

EC probe (Red): double-stranded DNA probe for E. coli 16S rRNA; donor SEQ ID 3 with 3′ 6-TAMRA, quencher SEQ ID 4 with 5′ Iowa Black RQ (sense GGTATTAACTTTACTCCCTTCCTC; antisense GAGGAAGGGAGT; sense: 3' {TAMRA}, sugars by position and backbone not given here; antisense: 5' {IBRQ}, sugars by position and backbone not given here)
fluorescence signal from the probe in the bacteria (non-target probe) ([3]; P. aeruginosa samples, EC probe): not
single cell pathogen identification of clinical isolates ([4]; isolates from clinical blood and urine samples): specifically identified
fluorescence signal from the probe in the bacteria ([4]; samples with E. coli only, both probes transformed): clearly observed

CC1(C)S[C@@H]2[C@H](NC(=O)[C@H](N)c3ccccc3)C(=O)N2[C@H]1C(=O)O [ampicillin]
antibiotic response in polymicrobial sample (E. coli (EC136)): resistant
antibiotic response in polymicrobial sample [2]: resistant
antibiotic response in polymicrobial sample ([2]; listed as Ampicillin): no effect
antibiotic response in polymicrobial sample (E. coli (EC137)): susceptible
antibiotic response in polymicrobial sample (E. coli (EC137); listed as Ampicillin): bactericidal effect
